Source: US9150568B2, “Compositions and methods for modulating FXR” (NOVARTIS AG, priority 2010, dated 2015)

target: T1, human Farnesoid X Receptor (FXR) ligand binding domain (GST-FXR LBD) (Homo sapiens, UniProt Q96RI1); assay: Human GST-FXR LBD co-activator interaction assay (HTRF); type: biochemical; conditions: not given
T1 construct: purchased Invitrogen
T1 sequence (Q96RI1 193-472 isoform Q96RI1-2): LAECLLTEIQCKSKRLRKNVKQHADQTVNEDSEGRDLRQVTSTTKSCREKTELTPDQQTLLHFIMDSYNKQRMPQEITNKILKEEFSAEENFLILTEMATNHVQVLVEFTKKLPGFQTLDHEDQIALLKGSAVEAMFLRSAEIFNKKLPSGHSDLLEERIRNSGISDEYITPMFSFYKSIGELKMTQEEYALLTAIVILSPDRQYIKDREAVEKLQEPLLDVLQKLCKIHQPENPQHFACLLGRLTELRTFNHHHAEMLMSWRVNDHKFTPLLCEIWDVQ
Source text: Human GST-FXR LBD Co-activator interaction Assay. The FXR HTRF assay is a biochemical assay measuring the interaction between FXR and a coactivator protein (SRC1). The ligand-induced interaction with a coactivator protein is a critical step in transcriptional activation by FXR. Thus, this is an assay designed to measure FXR agonist activity of compounds.
The ligand-dependent interaction between GST-FXR LBD and a peptide derived from Steroid Receptor Coactivator-1 (SRC-1) was monitored by Fluorescence Resonance Energy Transfer (FRET). […] Test compounds (in DMSO solution) and detection reagents (anti-GST-Cryptate labeled antibody and Streptavidin-XL665 conjugate; CisBio) were added in assay buffer containing 50 mM KF.
A negative control (without Streptavidin-XL665) was run with each assay and represented the background fluorescence. A reference FXR agonist, GW4064, was included in each experiment as positive control. The efficacy of each test compound was compared to that of GW4064. At each concentration, the relative activity of the test compound was expressed as Response %=(Rsample−RDMSO)/(Rpositive−RDMSO), where Rsample is the HTRF response (expressed in Delta F %) for the test compound, Rpositive is the maximal response for GW4064 at saturating concentrations, and RDMSO is the response for DMSO control. The EC50 values were calculated using GraphPad Prism (GraphPad Software) using non-linear regression curve fit (log(agonist) vs. response—variable slope (four parameters)).

`Cc1cc(C(=O)O)cnc1N1C2CC[C@H]1C[C@H](OCc1c(-c3ccccc3OC(F)(F)F)noc1C1CC1)C2` [Example 19-4B] gave an EC50 of 5 nM.

same assay, conditions: GST-FXR LBD / biotin-SRC-1 peptide FRET; response relative to GW4064; read-out: FXR Co-activator interaction assay (EC50)

First: O=C(O)c1cnc(N2C3CC[C@H]2C[C@H](OCc2c(-c4ccccc4OC(F)(F)F)noc2C2CC2)C3)c(C2CC2)c1 [Example 18-2B, 5-cyclopropyl-6-((1S,3R)-3-((5-cyclopropyl-3-(2-(trifluoromethoxy)phenyl)isoxazol-4-yl)methoxy)-8-azabicyclo[3.2.1]octan-8-yl)nicotinic acid]
Second: O=C(O)c1ccc(N2[C@@H]3CC[C@H]2C[C@H](OCc2c(-c4ccccc4OC(F)(F)F)noc2C2CC2)C3)nc1 [Example 18-3B, 6-[(1R,5S)-3-({5-cyclopropyl-3-[2-(trifluoromethoxy)phenyl]-1,2-oxazol-4-yl}methoxy)-8-azabicyclo[3.2.1]octan-8-yl]pyridine-3-carboxylic acid]
The EC50 of the first is 1.8-fold higher: 7 nM for the first, 4 nM for the second. The second is the more potent here.

Compared with `COC(=O)c1ccc(N2C3CC[C@H]2C[C@H](OCc2c(-c4ccccc4OC(F)(F)F)noc2C2CC2)C3)nc1` [Example 18-3A], `COC(=O)c1ccc(N2C3CC[C@H]2C[C@H](OCc2c(-c4ccccc4C(F)(F)F)noc2C2CC2)C3)nc1` [Example 18-6A] is 6.2-fold higher in EC50: 8 nM for the first, 50 nM for the second. The first is the more potent here.

First: COC(=O)c1cnc(N2C3CC[C@H]2C[C@H](OCc2c(-c4ccccc4OC(F)(F)F)noc2C2CC2)C3)nc1 [Example 18-4A]
Second: O=C(O)c1cnc(N2C3CC[C@H]2C[C@H](OCc2c(-c4ccccc4OC(F)(F)F)noc2C2CC2)C3)nc1 [Example 18-4B]
The EC50 of the first is 2-fold higher: 20 nM for the first, 10 nM for the second. The second is the more potent here.

Going from `COC(=O)c1cnc(N2C3CC[C@H]2C[C@H](OCc2c(-c4ccccc4OC(F)(F)F)noc2C2CC2)C3)cn1` [Example 18-5A] to `O=C(O)c1cnc(N2C3CC[C@H]2C[C@H](OCc2c(-c4ccccc4OC(F)(F)F)noc2C2CC2)C3)cn1` [Example 18-5B], the EC50 falls from 20 nM to 3 nM (6.7-fold).

Going from `O=C(O)c1ccc(N2[C@@H]3CC[C@H]2C[C@H](OCc2c(-c4ccccc4C(F)(F)F)noc2C2CC2)C3)nc1` [Example 18-6B, 6-[(1R,5S)-3-({5-cyclopropyl-3-[2-(trifluoromethyl)phenyl]-1,2-oxazol-4-yl}methoxy)-8-azabicyclo[3.2.1]octan-8-yl]pyridine-3-carboxylic acid] to `O=C(O)c1ccnc(N2C3CC[C@H]2CC(OCc2c(-c4ccccc4C(F)(F)F)noc2C2CC2)C3)c1` (some centres unmarked) [Example 20B, 2-(3-((5-cyclopropyl-3-(2-(trifluoromethyl)phenyl)isoxazol-4-yl)methox)-8-azabicyclo[3.2.1]octan-8-yl)isonicotinic acid], the EC50 rises from 5 nM to 330 nM (66-fold).

Compared with `COC(=O)c1cc(C)nc(N2C3CC[C@H]2C[C@H](OCc2c(-c4ccccc4OC(F)(F)F)noc2C2CC2)C3)n1` [Example 18-7A], `Cc1cc(C(=O)O)nc(N2C3CC[C@H]2C[C@H](OCc2c(-c4ccccc4OC(F)(F)F)noc2C2CC2)C3)n1` [Example 18-7B] is 9-fold lower in EC50: 18 nM for the first, 2 nM for the second. The second is the more potent here.

Compared with `COC(=O)Cc1ccc(N2C3CC[C@H]2C[C@H](OCc2c(-c4ccccc4OC(F)(F)F)noc2C2CC2)C3)nc1` [Example 19-1A], `O=C(O)Cc1ccc(N2C3CC[C@H]2C[C@H](OCc2c(-c4ccccc4OC(F)(F)F)noc2C2CC2)C3)nc1` [Example 19-1B] is 4.5-fold lower in EC50: 180 nM for the first, 40 nM for the second.

First: COC(=O)c1cnc(N2C3CC[C@H]2C[C@H](OCc2c(-c4ccccc4OC(F)(F)F)noc2C2CC2)C3)nc1C(F)(F)F [Example 19-2A]
Second: O=C(O)c1cnc(N2C3CC[C@H]2C[C@H](OCc2c(-c4ccccc4OC(F)(F)F)noc2C2CC2)C3)nc1C(F)(F)F [Example 19-2B]
The EC50 of the first is 4-fold higher: 80 nM for the first, 20 nM for the second.

Going from `COC(=O)c1cnc(N2C3CC[C@H]2C[C@H](OCc2c(-c4ccccc4OC(F)(F)F)noc2C2CC2)C3)cc1C(F)(F)F` [Example 19-3A] to `O=C(O)c1cnc(N2C3CC[C@H]2C[C@H](OCc2c(-c4ccccc4OC(F)(F)F)noc2C2CC2)C3)cc1C(F)(F)F` [Example 19-3B], the EC50 falls from 90 nM to 10 nM (9-fold).

First: COC(=O)c1cnc(N2C3CC[C@H]2C[C@H](OCc2c(-c4ccccc4OC(F)(F)F)noc2C2CC2)C3)c(C)c1 [Example 19-4A]
Second: COC(=O)c1cncc(N2C3CC[C@H]2C[C@H](OCc2c(-c4ccccc4OC(F)(F)F)noc2C2CC2)C3)n1 [Example 19-5A]
The EC50 of the first is 2.9-fold lower: 70 nM for the first, 200 nM for the second.

Compared with `O=C(O)c1cncc(N2C3CC[C@H]2C[C@H](OCc2c(-c4ccccc4OC(F)(F)F)noc2C2CC2)C3)n1` [Example 19-5B], `O=C(O)c1cccc(N2C3CC[C@H]2C[C@H](OCc2c(-c4ccccc4OC(F)(F)F)noc2C2CC2)C3)n1` [Example 19-7B] is 3-fold lower in EC50: 9 nM for the first, 3 nM for the second. The second is the more potent here.

First: COC(=O)c1ccnc(N2C3CC[C@H]2C[C@H](OCc2c(-c4ccccc4OC(F)(F)F)noc2C2CC2)C3)n1 [Example 19-6A]
Second: O=C(O)c1ccnc(N2C3CC[C@H]2C[C@H](OCc2c(-c4ccccc4OC(F)(F)F)noc2C2CC2)C3)n1 [Example 19-6B]
The EC50 of the first is 7.1-fold higher: 50 nM for the first, 7 nM for the second.

First: COC(=O)c1cccc(N2C3CC[C@H]2C[C@H](OCc2c(-c4ccccc4OC(F)(F)F)noc2C2CC2)C3)n1 [Example 19-7A]
Second: COC(=O)c1cccc(N2C3CC[C@H]2CC(OCc2c(-c4ccccc4C(F)(F)F)noc2C2CC2)C3)n1 (some centres unmarked) [Example 21-6A]
The EC50 of the first is 6-fold lower: 10 nM for the first, 60 nM for the second. The first is the more potent here.

First: COC(=O)c1ccnc(N2C3CC[C@H]2CC(OCc2c(-c4ccccc4C(F)(F)F)noc2C2CC2)C3)c1 (some centres unmarked) [Example 20A]
Second: COC(=O)c1cc(C)nc(N2C3CC[C@H]2CC(OCc2c(-c4ccccc4C(F)(F)F)noc2C2CC2)C3)c1 (some centres unmarked) [Example 21-1A]
The EC50 of the first is 1.8-fold lower: 170 nM for the first, 300 nM for the second.

First: Cc1cc(C(=O)O)cc(N2C3CC[C@H]2CC(OCc2c(-c4ccccc4C(F)(F)F)noc2C2CC2)C3)n1 (some centres unmarked) [Example 21-1B]
Second: O=C(O)c1cccc(N2C3CC[C@H]2CC(OCc2c(-c4ccccc4C(F)(F)F)noc2C2CC2)C3)n1 (some centres unmarked) [Example 21-6B]
The EC50 of the first is 16-fold higher: 260 nM for the first, 16 nM for the second. The second is the more potent here.

Compared with `COC(=O)c1cnc(N2C3CC[C@H]2CC(OCc2c(-c4ccccc4C(F)(F)F)noc2C2CC2)C3)nc1` (some centres unmarked) [Example 21-2A], `O=C(O)c1cnc(N2C3CC[C@H]2CC(OCc2c(-c4ccccc4C(F)(F)F)noc2C2CC2)C3)nc1` (some centres unmarked) [Example 21-2B] is 12-fold lower in EC50: 120 nM for the first, 10 nM for the second. The second is the more potent here.

Going from `COC(=O)c1cnc(N2C3CC[C@H]2CC(OCc2c(-c4ccccc4C(F)(F)F)noc2C2CC2)C3)cn1` (some centres unmarked) [Example 21-3A] to `O=C(O)c1cnc(N2C3CC[C@H]2CC(OCc2c(-c4ccccc4C(F)(F)F)noc2C2CC2)C3)cn1` (some centres unmarked) [Example 21-3B], the EC50 falls from 180 nM to 9 nM (20-fold).

First: COC(=O)c1cnc(N2C3CC[C@H]2CC(OCc2c(-c4ccccc4C(F)(F)F)noc2C2CC2)C3)cc1C(F)(F)F (some centres unmarked) [Example 21-4A]
Second: O=C(O)c1cnc(N2C3CC[C@H]2CC(OCc2c(-c4ccccc4C(F)(F)F)noc2C2CC2)C3)cc1C(F)(F)F (some centres unmarked) [Example 21-4B]
The EC50 of the first is 12-fold higher: 250 nM for the first, 20 nM for the second. The second is the more potent here.

Compared with `COC(=O)c1ccnc(N2C3CC[C@H]2CC(OCc2c(-c4ccccc4C(F)(F)F)noc2C2CC2)C3)n1` (some centres unmarked) [Example 21-5A], `O=C(O)c1ccnc(N2C3CC[C@H]2CC(OCc2c(-c4ccccc4C(F)(F)F)noc2C2CC2)C3)n1` (some centres unmarked) [Example 21-5B] is 11-fold lower in EC50: 110 nM for the first, 10 nM for the second.

First: COC(=O)c1cnc(N2C3CC[C@H]2CC(OCc2c(-c4ccccc4OC(F)F)noc2C2CC2)C3)cc1C(F)(F)F (some centres unmarked) [Example 22-1A]
Second: O=C(O)c1cnc(N2C3CC[C@H]2CC(OCc2c(-c4ccccc4OC(F)F)noc2C2CC2)C3)cc1C(F)(F)F (some centres unmarked) [Example 22-1B]
The EC50 of the first is 26-fold higher: 530 nM for the first, 20 nM for the second.
